By inhibition is commonly meant how much of the control response was suppressed. Low values mean little suppression, high ones strong suppression. As a reminder, the half-life is how long it takes for the measured level to halve. Read a low half-life as fast loss. What is called IC50 is the concentration that inhibits the measured activity by half. Low values mean higher potency, high ones lower potency.

Data set [1] deals with T1, Neutrophil elastase (Homo sapiens) (UniProt P08246).
T1 sequence (whole entry): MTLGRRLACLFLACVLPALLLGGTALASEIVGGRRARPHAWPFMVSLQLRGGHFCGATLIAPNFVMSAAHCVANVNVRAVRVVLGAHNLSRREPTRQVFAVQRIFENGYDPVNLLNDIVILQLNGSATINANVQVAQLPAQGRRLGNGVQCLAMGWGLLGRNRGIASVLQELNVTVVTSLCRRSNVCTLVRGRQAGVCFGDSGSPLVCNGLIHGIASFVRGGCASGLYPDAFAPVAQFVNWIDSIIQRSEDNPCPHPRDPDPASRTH
The experiment in a line: Percent inhibition against human leukocyte elastase (HLE) at a concentration of 10 microgM.

In data set [2] the target is T2, Chymotrypsinogen B (Homo sapiens, UniProt P17538). The experiment in a line: Inhibitory concentration against human chymotrypsin at a concentration of 10 uM.
The nature of data set [3]: In vitro biological half-life was measured in human plasma. It counts as ADME.
For data set [4], the target named is T2, Chymotrypsinogen B. The experiment in a line: Inhibitory concentration against human chymotrypsin.
Data set [5] has as its target T3, Neutrophil elastase (Homo sapiens, UniProt P08246).
T3 sequence (P08246 whole entry): T1 sequence (whole entry)
Description: Inhibitory concentration against human leukocyte elastase (HLE).

In data set [6] the target is T1, Neutrophil elastase (Homo sapiens). The experiment in a line: Percent inhibition against human leukocyte elastase (HLE) at a concentration of 100 microgM.
The target of data set [7] is T2, Chymotrypsinogen B. Description: Inhibitory concentration against human chymotrypsin at a concentration of 100 uM.

T2 sequence (P17538 34-164 limits assumed, other chains not shown): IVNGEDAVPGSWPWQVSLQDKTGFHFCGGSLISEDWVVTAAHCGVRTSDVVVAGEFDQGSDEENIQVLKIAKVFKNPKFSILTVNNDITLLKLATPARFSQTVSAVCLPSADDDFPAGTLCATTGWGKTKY
T2 sequence (P17538 167-263 limits assumed, other chains not shown): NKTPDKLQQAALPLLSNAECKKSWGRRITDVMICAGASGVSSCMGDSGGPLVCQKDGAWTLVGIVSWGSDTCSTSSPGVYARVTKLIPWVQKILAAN

For the molecule `Cc1c(NC(=O)c2ccccn2)ccc2nc(N[C@H](C)c3ccccc3)oc(=O)c12`, the inhibition in data set [1] worked out at 29%; in data set [2] it was 28%. In addition, in data set [3], the half-life amounted to 31 min.
In data set [4], `Cc1c(NC(=O)OC(C)(C)C)ccc2nc(N[C@H](C)c3ccccc3)oc(=O)c12` had an IC50 of 42000 nM. The molecule also registered a half-life in data set [3] of 30 min.
In the case of `Cc1c(N(C)C)ccc2nc(N[C@H](C)c3ccccc3)oc(=O)c12`, the IC50 in data set [5] was 3200 nM; in data set [4], 65 nM. Further, in data set [3], the half-life was 127 min.
Molecule `Cc1cccc2nc(N[C@H](C)c3ccccc3)oc(=O)c12` had a concentration for half-maximal inhibition (IC50) in data set [4] of 88 nM. Besides, in data set [3], the half-life worked out at 67 min.
For `COc1ccc(S(=O)(=O)Nc2ccc3nc(N[C@H](C)c4ccccc4)oc(=O)c3c2C)cc1`, the inhibition in data set [6] amounted to 66%. This molecule returned an IC50 in data set [4] of 3600 nM. Moreover, the half-life in data set [3] is 50 min.
`Cc1cccc2nc(N[C@@H](C)c3ccccc3)oc(=O)c12`: the IC50 in data set [5] stood at 44 nM; in data set [4] it was 180 nM. The molecule also came in with a half-life in data set [3] of 70 min.
For `Cc1cccc2nc(N[C@H](C)c3ccc(Br)cc3)oc(=O)c12`, in that order: 20 nM, 140 nM and 50 min.
In the case of `Cc1c(NC(=O)CN2CCCC2)ccc2nc(N[C@H](C)c3ccccc3)oc(=O)c12`, the inhibition in data set [6] turned out to be 36%; in data set [7] it was 47%. Besides, the half-life in data set [3] turned out to be 32 min.
As to `Cc1c(NC(=O)CN(C)C)ccc2nc(N[C@H](C)c3ccccc3)oc(=O)c12`, in data set [6], the inhibition amounted to 67%. In addition, the IC50 in data set [4] is 2600 nM. Moreover, the half-life in data set [3] came out at 32 min.
Regarding `Cc1cccc2nc(NC(C)C)oc(=O)c12`, the IC50 was 33 nM in data set [5] and 2000 nM in data set [4]. In data set [3], the half-life amounted to 107 min.

The values above are taken from ChEMBL document CHEMBL1150446, “Inhibition of human cytomegalovirus protease by benzoxazinones and evidence of antiviral activity in cell culture” (Bioorg Med Chem Lett, 1997).
